{"source": "paper PMC6222997", "about": "“Cloning, purification, and characterization of an organic solvent-tolerant chitinase, MtCh509, from Microbulbifer thermotolerans DAU221” (Biotechnology for Biofuels, 2018)", "molecular_target": "T1, MtCh509 (Microbulbifer thermotolerans, UniProt A0A143HNF3)", "T1 construct": "gene A3224_11035; full-length precursor 509 aa; cloned without signal peptide, N-terminal His6 (pCold I), E. coli BL21(DE3); ~60 kDa; GH18 catalytic domain plus ChtBD3", "T1 sequence (A0A143HNF3 entry or part of it)": "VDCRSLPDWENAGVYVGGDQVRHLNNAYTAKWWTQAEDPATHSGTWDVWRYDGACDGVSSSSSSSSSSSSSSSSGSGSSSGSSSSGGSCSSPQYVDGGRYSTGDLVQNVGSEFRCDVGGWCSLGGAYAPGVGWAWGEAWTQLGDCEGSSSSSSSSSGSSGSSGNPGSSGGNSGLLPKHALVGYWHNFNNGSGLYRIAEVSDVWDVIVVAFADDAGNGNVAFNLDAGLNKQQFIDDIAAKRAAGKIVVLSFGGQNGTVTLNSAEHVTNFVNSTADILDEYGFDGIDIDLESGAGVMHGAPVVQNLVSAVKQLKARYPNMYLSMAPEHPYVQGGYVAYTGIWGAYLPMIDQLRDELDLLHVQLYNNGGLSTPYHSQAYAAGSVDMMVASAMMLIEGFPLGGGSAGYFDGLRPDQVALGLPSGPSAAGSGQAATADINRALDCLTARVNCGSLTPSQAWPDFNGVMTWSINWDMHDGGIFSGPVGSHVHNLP", "assay": "TLC of hydrolysis products", "type": "biochemical", "settings": "50 mM citrate buffer pH 5.0, 55 °C; 0.3 μg enzyme", "data": [{"compound": "CC(=O)N[C@H]1[C@H](O[C@H]2[C@H](O)[C@@H](NC(C)=O)[C@H](O[C@H]3[C@H](O)[C@@H](NC(C)=O)C(O)O[C@@H]3CO)O[C@@H]2CO)O[C@H](CO)[C@@H](O[C@@H]2O[C@H](CO)[C@@H](O[C@@H]3O[C@H](CO)[C@@H](O[C@@H]4O[C@H](CO)[C@@H](O)[C@H](O)[C@H]4NC(C)=O)[C@H](O)[C@H]3NC(C)=O)[C@H](O)[C@H]2NC(C)=O)[C@@H]1O", "note": "(stereo partly shown) [NAG6]", "values": [{"measurement": "TLC of hydrolysis products", "value": "NAG6 (Fig. 5E) was finally degraded to NAG3 and NAG2"}]}]}
